Assay results published in PubChem BioAssay (NCI).
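Method: 48-hour compound exposure of cells in 96-well plates, five concentrations, linear interpolation of endpoints. Abbreviation: GI50, concentration required for 50% inhibition of growth. Definition used: TGI = concentration required for complete inhibition of growth.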

What was measured:
Assay in all cases: NCI-60 cell line screen, 48 h
BT-549 breast = tested on: BT-549 breast
786-0 renal = tested on: 786-0 renal
DU-145 prostate = tested on: DU-145 prostate
HOP-92 NSCLC = tested on: HOP-92 NSCLC
SNB-19 CNS = tested on: SNB-19 CNS
OVCAR-5 ovarian = tested on: OVCAR-5 ovarian
NCI-H23 lung = tested on: NCI-H23 lung
HT29 colon = tested on: HT29 colon
HOP-62 NSCLC = tested on: HOP-62 NSCLC
M14 melanoma = tested on: M14 melanoma
NCI-H522 lung = tested on: NCI-H522 lung
SR leukemia = tested on: SR leukemia
HCT-15 colon = tested on: HCT-15 colon
MALME-3M melanoma = tested on: MALME-3M melanoma
NCI-H226 lung = tested on: NCI-H226 lung
KM12 colon = tested on: KM12 colon
COLO 205 colon = tested on: COLO 205 colon
U251 CNS = tested on: U251 CNS
IGROV1 ovarian = tested on: IGROV1 ovarian
MDA-MB-231 breast = tested on: MDA-MB-231 breast
A498 renal = tested on: A498 renal
MDA-MB-435 = tested on: MDA-MB-435
MCF7 breast = tested on: MCF7 breast
CCRF-CEM leukemia = tested on: CCRF-CEM leukemia
EKVX NSCLC = tested on: EKVX NSCLC
SK-MEL-28 melanoma = tested on: SK-MEL-28 melanoma
SK-MEL-5 melanoma = tested on: SK-MEL-5 melanoma
SF-295 CNS = tested on: SF-295 CNS
A549 NSCLC = tested on: A549 NSCLC
CAKI-1 renal = tested on: CAKI-1 renal
OVCAR-8 ovarian = tested on: OVCAR-8 ovarian
UACC-257 melanoma = tested on: UACC-257 melanoma
LOX IMVI melanoma = tested on: LOX IMVI melanoma
TK-10 renal = tested on: TK-10 renal
HS 578T breast = tested on: HS 578T breast
K-562 leukemia = tested on: K-562 leukemia
SW-620 colon = tested on: SW-620 colon
UACC-62 melanoma = tested on: UACC-62 melanoma
RPMI-8226 leukemia = tested on: RPMI-8226 leukemia
OVCAR-3 ovarian = tested on: OVCAR-3 ovarian
UO-31 renal = tested on: UO-31 renal
PC-3 prostate = tested on: PC-3 prostate
MOLT-4 leukemia = tested on: MOLT-4 leukemia
T-47D breast = tested on: T-47D breast
SF-539 CNS = tested on: SF-539 CNS
SK-OV-3 ovarian = tested on: SK-OV-3 ovarian
SF-268 CNS = tested on: SF-268 CNS
SN12C renal = tested on: SN12C renal
NCI-H460 lung = tested on: NCI-H460 lung
SNB-75 CNS = tested on: SNB-75 CNS
HL-60(TB) leukemia = tested on: HL-60(TB) leukemia
ACHN renal = tested on: ACHN renal
NCI/ADR-RES ovarian = tested on: NCI/ADR-RES ovarian
RXF 393 renal = tested on: RXF 393 renal
HCT-116 colon = tested on: HCT-116 colon
SK-MEL-2 melanoma = tested on: SK-MEL-2 melanoma
OVCAR-4 ovarian = tested on: OVCAR-4 ovarian
HCC-2998 colon = tested on: HCC-2998 colon

Clc1coc2nc3ccccc3c(Nc3ccc4c(c3)OCO4)c12
GI50 (BT-549 breast): 5.19 µM
TGI (BT-549 breast): 27 µM
GI50 (786-0 renal): 2.73 µM
TGI (786-0 renal): > 42.6 µM
GI50 (DU-145 prostate): 2.58 µM
TGI (DU-145 prostate): 17.2 µM
GI50 (HOP-92 NSCLC): 8 µM
TGI (HOP-92 NSCLC): 63.2 µM
GI50 (SNB-19 CNS): 1.8 µM
TGI (SNB-19 CNS): > 100 µM
GI50 (OVCAR-5 ovarian): 6.99 µM
TGI (OVCAR-5 ovarian): > 100 µM
GI50 (NCI-H23 lung): 0.983 µM
TGI (NCI-H23 lung): 22 µM
GI50 (HT29 colon): 0.601 µM
TGI (HT29 colon): > 100 µM
GI50 (HOP-62 NSCLC): 0.781 µM
TGI (HOP-62 NSCLC): 21.9 µM
GI50 (M14 melanoma): 0.699 µM
TGI (M14 melanoma): 13.8 µM
GI50 (NCI-H522 lung): 2.17 µM
TGI (NCI-H522 lung): > 23.3 µM
GI50 (SR leukemia): 0.201 µM
TGI (SR leukemia): 0.938 µM
GI50 (HCT-15 colon): 0.429 µM
TGI (HCT-15 colon): 8.05 µM
GI50 (MALME-3M melanoma): 0.795 µM
TGI (MALME-3M melanoma): 8.67 µM
GI50 (NCI-H226 lung): 2.35 µM
TGI (NCI-H226 lung): > 26.2 µM
GI50 (KM12 colon): 0.997 µM
TGI (KM12 colon): 12.5 µM
GI50 (COLO 205 colon): 2.05 µM
TGI (COLO 205 colon): 30 µM
GI50 (U251 CNS): 1.12 µM
TGI (U251 CNS): 11.5 µM
GI50 (IGROV1 ovarian): 5.95 µM
TGI (IGROV1 ovarian): > 100 µM
GI50 (MDA-MB-231 breast): 0.974 µM
TGI (MDA-MB-231 breast): 81.3 µM
GI50 (A498 renal): 1.14 µM
TGI (A498 renal): 5.82 µM
GI50 (MDA-MB-435): 0.62 µM
TGI (MDA-MB-435): 1.46 µM
GI50 (MCF7 breast): 1.81 µM
TGI (MCF7 breast): > 100 µM
GI50 (CCRF-CEM leukemia): 1.54 µM
TGI (CCRF-CEM leukemia): 6.96 µM
GI50 (EKVX NSCLC): 5.35 µM
TGI (EKVX NSCLC): 30.4 µM
GI50 (SK-MEL-28 melanoma): 3.49 µM
TGI (SK-MEL-28 melanoma): > 71.4 µM
GI50 (SK-MEL-5 melanoma): 1.46 µM
TGI (SK-MEL-5 melanoma): 5.78 µM
GI50 (SF-295 CNS): 1.21 µM
TGI (SF-295 CNS): 4.42 µM
GI50 (A549 NSCLC): 0.995 µM
TGI (A549 NSCLC): 22.3 µM
GI50 (CAKI-1 renal): 1.51 µM
TGI (CAKI-1 renal): 10.6 µM
GI50 (OVCAR-8 ovarian): 2.33 µM
TGI (OVCAR-8 ovarian): 21.2 µM
GI50 (UACC-257 melanoma): 9.15 µM
TGI (UACC-257 melanoma): 26.1 µM
GI50 (LOX IMVI melanoma): 2.01 µM
TGI (LOX IMVI melanoma): 13.6 µM
GI50 (TK-10 renal): 2.59 µM
TGI (TK-10 renal): 17.4 µM
GI50 (HS 578T breast): 1.89 µM
TGI (HS 578T breast): 5.37 µM
GI50 (K-562 leukemia): 0.498 µM
GI50 (SW-620 colon): 3.22 µM
TGI (SW-620 colon): 12.1 µM
GI50 (UACC-62 melanoma): 0.408 µM
TGI (UACC-62 melanoma): 5.32 µM
GI50 (RPMI-8226 leukemia): 1.45 µM
TGI (RPMI-8226 leukemia): 4.44 µM
GI50 (OVCAR-3 ovarian): 0.596 µM
TGI (OVCAR-3 ovarian): 2.46 µM
GI50 (UO-31 renal): 6.5 µM
TGI (UO-31 renal): > 100 µM
GI50 (PC-3 prostate): 1.93 µM
TGI (PC-3 prostate): 13.5 µM
GI50 (MOLT-4 leukemia): 0.803 µM
TGI (MOLT-4 leukemia): 22 µM
GI50 (T-47D breast): 13.4 µM
TGI (T-47D breast): > 100 µM
GI50 (SF-539 CNS): 2.46 µM
TGI (SF-539 CNS): 7.42 µM
GI50 (SK-OV-3 ovarian): 2.24 µM
TGI (SK-OV-3 ovarian): > 100 µM
GI50 (SF-268 CNS): 5.6 µM
TGI (SF-268 CNS): 54 µM
GI50 (SN12C renal): 5.95 µM
TGI (SN12C renal): > 100 µM
GI50 (NCI-H460 lung): 1.98 µM
TGI (NCI-H460 lung): 14.5 µM
GI50 (SNB-75 CNS): 4.36 µM
TGI (SNB-75 CNS): > 100 µM
GI50 (HL-60(TB) leukemia): 0.808 µM
TGI (HL-60(TB) leukemia): 8.82 µM
GI50 (ACHN renal): 1.15 µM
TGI (ACHN renal): 12.1 µM
GI50 (NCI/ADR-RES ovarian): 0.512 µM
TGI (NCI/ADR-RES ovarian): 8.01 µM
GI50 (RXF 393 renal): 1.51 µM
TGI (RXF 393 renal): 8.47 µM
GI50 (HCT-116 colon): 0.443 µM
TGI (HCT-116 colon): 11.8 µM
GI50 (SK-MEL-2 melanoma): 5.99 µM
TGI (SK-MEL-2 melanoma): > 100 µM
GI50 (OVCAR-4 ovarian): 22.8 µM
TGI (OVCAR-4 ovarian): > 100 µM
GI50 (HCC-2998 colon): 0.404 µM
TGI (HCC-2998 colon): 2.8 µM
